{"source": "patent US6375928B1", "about": "“Neutrophil stimulating peptides” (Peptech Limited, priority 1990, dated 2002)", "key": {"human neutrophils [1]": {"test_system": "human neutrophils", "experiment": "Chemiluminescence assay: priming of neutrophils for F-met-leu-phe response (respiratory burst)", "assay_type": "cell-based", "conditions": "for lucigenin dependent chemiluminescence, peak of response: 20 min pretreatment before f-met-leu-phe; for chemiluminescence (repeat experiment, Table 3): peptide + fMLP", "description": "Purified human neutrophils were pretreated with peptide for 20 minutes before the addition of f-met-leu-phe. The lucigenin dependent chemiluminescence response, which reflects superoxide production, was then measured. The results obtained are set out in Table 2 and are expressed as mV of lucigenin dependent chemiluminescence and represent the maximal cell activity attained.\nResults are expressed as mV of lucigenin dependent chemiluminescence and represent peak of response i.e. the maximal cell activity attained."}, "P. falciparum": {"test_system": "P. falciparum", "experiment": "Ability of peptide-stimulated neutrophils to inhibit in vitro growth of malaria parasites", "assay_type": "cell-based", "conditions": "neutrophils incubated with peptide 37° C. 30 minutes; thawed normal, normal and immune serum (FIG. 5)", "description": "The ability of neutrophils stimulated with peptides 418 and 419 (SEQ ID Nos. 17 & 18) to inhibit in vitro growth of malaria parasites was assessed.\nBriefly, neutrophils were incubated with peptides 418 and 419 (SEQ ID NOs. 17 & 18) at 37° C. for 30 minutes and then washed with HBSS. The neutrophils were then added to a culture of red blood cells infected with P. falciparum. The cultures were then examined microscopically for evidence of parasite death."}, "Pseudomonas aeruginosa": {"test_system": "Pseudomonas aeruginosa", "experiment": "Pseudomonas experiment: chronic lung infection in mice", "assay_type": "in vivo", "conditions": "female Swiss mice, chronic Pa lung infection; 0.5 mg peptide tail-vein each day for 3 days from day 12; n=4; p<0.05 vs carrier (5.25)", "description": "Chronic lung infection by Pseudomonas aeruginosa (Pa) is common in cystic fibrosis. […] The present inventors reasoned that pre-sensitising neutrophils with TNF intravascularly, prior to their entry into the lung, may overcome this problem. […] The ability of i.v.-injected 419 (SEQ ID NO. 18) to protect against chronic lung injury induced by Pseudomonas was tested. Chronic lung infections were established in 120 14 week female Swiss mice by introducing the bacteria suspended in agar beads (<200 μm diameter) into the lung. Mice were anaesthetised and 30 μl of bead suspension introduced via a polyethylene cannula into the right bronchus through a small incision between the tracheal rings. After recover, animals (n=20) developed a chronic infection followed for at least 10-14 days. Control animals included: sham-operated (n=2); and those inoculated with sterile beads (n=6) or with beads containing fresh, heat-killed Pa (n=5)."}, "monocytes": {"test_system": "monocytes", "experiment": "Priming of monocytes for a respiratory burst (chemiluminescence)", "assay_type": "cell-based", "conditions": "10^6 monocytes/tube/ml, 30 min pre-incubation 37° C.", "description": "Peptide 419 (SEQ ID NO. 18) was assayed for its ability to prime monocytes for a respiratory burst. This assay was conducted essentially as described above for neutrophils except that the cells were cultured for 24 hours prior to assay."}, "ICAM": {"test_system": "ICAM", "experiment": "Induction of ICAM on human umbilical vein endothelial cells (HUVEC)", "assay_type": "cell-based", "conditions": "peptide 1 mg, four hours at 37° C. (FIG. 7)", "description": "Peptide 419 (SEQ ID NO. 18) was tested for its ability to induce ICAM using the following procedure.\nThe cells were then washed extensively with PBS containing Ca^++ and Mg^++ and fixed ([…] 0.025% guteraldehyde, overnight, 4° C.). The cells were again washed, and incubated with anti-ICAM antibody (84H10) for 1 hr at room temperature. The cells were washed and incubated for a further 1 hr at room temperature in the presence of rabbit anti-mouse Ig-HRP. Surface expression of Icam was then quantitated using the ABTS substrate by absorption at OD405 nm."}, "neutrophils [2]": {"test_system": "neutrophils", "experiment": "Superoxide formation, cytochrome reduction assay", "assay_type": "cell-based", "from_the_text": "The effect of peptides 308 and 309 (SEQ ID NOs. 10 & 11) on superoxide formation was examined by the cytochrome reduction assay, according to the procedure of Ferrante, 1989 (Infection and Immunity), 57: 2115-2122). The results, expressed as n moles of O2/5×10^5 cells as set out in Table 6."}, "neutrophils [3]": {"test_system": "neutrophils", "experiment": "Neutrophil random migration out of wells in agarose", "assay_type": "cell-based", "from_the_text": "Migration of cells is an important property by which cells reach infection sites. Their accumulation at these sites is also dependent on the capacity of inflammatory mediators to inhibit their migration out of the sites."}, "neutrophils [4]": {"test_system": "neutrophils", "experiment": "Chemotactic properties, neutrophil migration under agarose", "assay_type": "cell-based", "description": "5 μl of neutrophils (2×10^5 cells) were added to the inner well, with chemotactic agent or control medium added to the outer wells. Migration at various time intervals was then measured."}, "neutrophils [5]": {"test_system": "neutrophils", "experiment": "Neutrophil degranulation: β-glucuronidase release (azurophilic granules)", "assay_type": "cell-based", "conditions": "for β-glucuronidase release, Exp. 1 / β-glucuronidase release, Exp. 2 / β-glucuronidase release, Exp. 3 / β-glucuronidase release, Exp. 4: in the presence of CytoB"}, "neutrophils [6]": {"test_system": "neutrophils", "experiment": "Neutrophil degranulation: Vitamin B12 binding protein release (specific granules)", "assay_type": "cell-based", "conditions": "for Vitamin B12 Binding Protein, Exp. 1 / Vitamin B12 Binding Protein, Exp. 2 / Vitamin B12 Binding Protein, Exp. 3 / Vitamin B12 Binding Protein, Exp. 4: in the presence of CytoB"}, "human neutrophils [7]": {"test_system": "human neutrophils", "experiment": "Chemiluminescence assay: priming of neutrophils for F-met-leu-phe response (respiratory burst)", "assay_type": "cell-based", "conditions": "peptide alone"}, "[8]": {"conditions": "with fMLP, 419 100 μg/10^6 monocytes, 50 U TNF or no pre-treatment"}, "[9]": {"conditions": "without fMLP, 419 100 μg/10^6 monocytes or 50 U TNF"}, "[10]": {"conditions": "towards agent well, 1 × 10^−7 M fMLP, peptide, or 10^3 U/ml TNFα, 2×10^5 neutrophils"}, "[11]": {"conditions": "peptide 100 μg/10^6 cells (or HBSS) + fMLP"}, "[12]": {"conditions": "peptide 100 μg/10^6 cells, no fMLP"}}, "note": "Entries after “also recorded” stand apart in the source; their conditions may differ."}
{"substance": "P S T H V L I T H T I (PSTHVLITHTI) [Peptide 419]", "values": [{"measurement": "neutrophil stimulating activity / stimulation of neutrophil respiratory burst (in words)", "setting": "human neutrophils [1]", "result": "neutrophil stimulating activity"}, {"measurement": "Chemiluminescence mean + sem", "setting": "human neutrophils [1]; 100 μg peptide, priming neutrophils for respiratory burst", "result": "18.6 ± 0.5", "unit": "mV"}, {"measurement": "inhibition of in vitro growth of malaria parasites by stimulated neutrophils (in words)", "setting": "P. falciparum", "result": "more effective than TNF"}, {"measurement": "percentage peripheral consolidation, mean (se)", "setting": "Pseudomonas aeruginosa", "result": "0.25 (se 0.25) %"}, {"measurement": "Peak mV Chemiluminescence, Mean ± S.D.", "setting": "monocytes; [8]", "result": "240.0 ± 32.527", "unit": "mV"}, {"measurement": "Peak mV Chemiluminescence, experiment 1", "setting": "monocytes; [8]", "result": 263.0, "unit": "mV"}, {"measurement": "Peak mV Chemiluminescence, experiment 2", "setting": "monocytes; [8]", "result": 217.0, "unit": "mV"}, {"measurement": "Peak mV Chemiluminescence, Mean ± S.D.", "setting": "monocytes; [9]", "result": "3.385 ± 1.365", "unit": "mV"}, {"measurement": "Peak mV Chemiluminescence, experiment 1", "setting": "monocytes; [9]", "result": 2.42, "unit": "mV"}, {"measurement": "Peak mV Chemiluminescence, experiment 2", "setting": "monocytes; [9]", "result": 4.35, "unit": "mV"}, {"measurement": "induction of ICAM surface expression (in words)", "setting": "ICAM", "result": "does not induce the cell adhesion molecule ICAM"}]}
{"substance": "G L Y L I Y S Q V L F K G Q G (GLYLIYSQVLFKGQG) [Peptide 308]", "values": [{"measurement": "neutrophil stimulating activity / stimulation of neutrophil respiratory burst (in words)", "setting": "human neutrophils [1]", "result": "neutrophil stimulating activity"}, {"measurement": "priming of neutrophils for the respiratory burst associated with f-met-leu-phe treatment (in words)", "setting": "human neutrophils [1]", "result": "found to prime human neutrophils for the respiratory burst; also recorded: particularly potent primer of neutrophils"}, {"measurement": "lucigenin dependent chemiluminescence, peak of response", "setting": "human neutrophils [1]; peptide 1 μg/10^6 cells", "result": 0.91, "unit": "mV"}, {"measurement": "lucigenin dependent chemiluminescence, peak of response", "setting": "human neutrophils [1]; peptide 10 μg/10^6 cells", "result": 4.80, "unit": "mV"}, {"measurement": "lucigenin dependent chemiluminescence, peak of response", "setting": "human neutrophils [1]; peptide 100 μg/10^6 cells", "result": 49.52, "unit": "mV"}, {"measurement": "chemiluminescence (repeat experiment, Table 3)", "setting": "human neutrophils [1]; 10 μg/10^6 cells", "result": 2.74, "unit": "mV"}, {"measurement": "chemiluminescence (repeat experiment, Table 3)", "setting": "human neutrophils [1]; 100 μg/10^6 cells", "result": 28.56, "unit": "mV"}, {"measurement": "superoxide formation", "setting": "neutrophils [2]; peptide + fMLP, 10 μg/5 × 10^5 cells", "result": "5.00 n moles of O2/5×10^5 cells"}, {"measurement": "superoxide formation", "setting": "neutrophils [2]; peptide + fMLP, 100 μg/5 × 10^5 cells", "result": "6.729 n moles of O2/5×10^5 cells"}, {"measurement": "superoxide formation", "setting": "neutrophils [2]; peptide alone, 10 μg/5 × 10^5 cells", "result": "2.78 n moles of O2/5×10^5 cells"}, {"measurement": "superoxide formation", "setting": "neutrophils [2]; peptide alone, 100 μg/5 × 10^5 cells", "result": "4.892 n moles of O2/5×10^5 cells"}, {"measurement": "effect on neutrophil random migration (in words)", "setting": "neutrophils [3]", "result": "potent inhibitors of neutrophil migration"}, {"measurement": "Inhibition of Migration", "setting": "neutrophils [3]; 10 μg/10^6 cells", "result": 0, "unit": "%"}, {"measurement": "Inhibition of Migration", "setting": "neutrophils [3]; 100 μg/10^6 cells", "result": 100, "unit": "%"}, {"measurement": "chemotactic properties (in words)", "setting": "neutrophils [4]", "result": "strongly chemotactic"}, {"measurement": "Migration distance at 1.5 h, Agent", "setting": "neutrophils [4]; [10]", "result": 0.66, "unit": "mm"}, {"measurement": "Migration distance at 2.5 h, Agent", "setting": "neutrophils [4]; [10]", "result": 1.41, "unit": "mm"}, {"measurement": "release from azurophilic granules (β-glucuronidase), in words", "setting": "neutrophils [5]; absence of fMLP", "result": "decreased the release"}, {"measurement": "β-glucuronidase release, Exp. 1", "setting": "neutrophils [5]; [11]", "result": 17.57, "unit": "%"}, {"measurement": "β-glucuronidase release, Exp. 2", "setting": "neutrophils [5]; [11]", "result": 28.86, "unit": "%"}, {"measurement": "β-glucuronidase release, Exp. 3", "setting": "neutrophils [5]; [11]", "result": 17.86, "unit": "%"}, {"measurement": "β-glucuronidase release, Exp. 4", "setting": "neutrophils [5]; [11]", "result": 18.20, "unit": "%"}, {"measurement": "β-glucuronidase release, Exp. 1", "setting": "neutrophils [5]; [12]", "result": 0.8, "unit": "%"}, {"measurement": "β-glucuronidase release, Exp. 2", "setting": "neutrophils [5]; [12]", "result": 0.65, "unit": "%"}, {"measurement": "β-glucuronidase release, Exp. 3", "setting": "neutrophils [5]; [12]", "result": 2.76, "unit": "%"}, {"measurement": "β-glucuronidase release, Exp. 4", "setting": "neutrophils [5]; [12]", "result": 0.72, "unit": "%"}, {"measurement": "release from azurophilic granules (β-glucuronidase), in words", "setting": "neutrophils [5]; presence of fMLP", "result": "still apparent following stimulation with fMLP"}, {"measurement": "release from specific granules (Vitamin B12 binding protein), in words", "setting": "neutrophils [6]; absence of fMLP", "result": "decreased the release"}, {"measurement": "Vitamin B12 Binding Protein, Exp. 1", "setting": "neutrophils [6]; [11]", "result": 35.81}, {"measurement": "Vitamin B12 Binding Protein, Exp. 2", "setting": "neutrophils [6]; [11]", "result": 27.59}, {"measurement": "Vitamin B12 Binding Protein, Exp. 3", "setting": "neutrophils [6]; [11]", "result": 26.55}, {"measurement": "Vitamin B12 Binding Protein, Exp. 4", "setting": "neutrophils [6]; [11]", "result": 21.51}, {"measurement": "Vitamin B12 Binding Protein, Exp. 1", "setting": "neutrophils [6]; [12]", "result": 2.00}, {"measurement": "Vitamin B12 Binding Protein, Exp. 2", "setting": "neutrophils [6]; [12]", "result": 2.08}, {"measurement": "Vitamin B12 Binding Protein, Exp. 3", "setting": "neutrophils [6]; [12]", "result": 5.70}, {"measurement": "Vitamin B12 Binding Protein, Exp. 4", "setting": "neutrophils [6]; [12]", "result": 2.25}, {"measurement": "release from specific granules (Vitamin B12 binding protein), in words", "setting": "neutrophils [6]; presence of fMLP", "result": "still apparent following stimulation with fMLP"}, {"measurement": "chemiluminescence (repeat experiment, Table 3)", "setting": "human neutrophils [7]; 10 μg/10^6 cells", "result": 1.00, "unit": "mV"}, {"measurement": "chemiluminescence (repeat experiment, Table 3)", "setting": "human neutrophils [7]; 100 μg/10^6 cells", "result": 11.76, "unit": "mV"}]}
